Measurements as given in PubChem BioAssay (NCI).
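Interpolation was linear, between the two tested concentrations surrounding the appropriate level; five concentrations were tested over 48 hours in 96-well plates. GI50: concentration for 50% inhibition of growth. Definition used: TGI = concentration required for complete inhibition of growth.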

Assays:
Assay in all cases: NCI anticancer screen, dose series, 48 h
MCF7 breast = tested on: MCF7 breast
SW-620 colon = tested on: SW-620 colon
DU-145 prostate = tested on: DU-145 prostate
OVCAR-8 ovarian = tested on: OVCAR-8 ovarian
HL-60(TB) leukemia = tested on: HL-60(TB) leukemia
SF-295 CNS = tested on: SF-295 CNS
T-47D breast = tested on: T-47D breast
SK-MEL-2 melanoma = tested on: SK-MEL-2 melanoma
NCI-H226 lung = tested on: NCI-H226 lung
PC-3 prostate = tested on: PC-3 prostate

Row | Compound | GI50 (MCF7 breast) | TGI (MCF7 breast) | GI50 (SW-620 colon) | TGI (SW-620 colon) | GI50 (DU-145 prostate) | TGI (DU-145 prostate) | GI50 (OVCAR-8 ovarian) | TGI (OVCAR-8 ovarian) | GI50 (HL-60(TB) leukemia) | TGI (HL-60(TB) leukemia) | GI50 (SF-295 CNS) | TGI (SF-295 CNS) | GI50 (T-47D breast) | TGI (T-47D breast) | GI50 (SK-MEL-2 melanoma) | TGI (SK-MEL-2 melanoma) | GI50 (NCI-H226 lung) | TGI (NCI-H226 lung) | GI50 (PC-3 prostate) | TGI (PC-3 prostate)
1 | COc1ccc(-c2cc3c4c(nc5ccccc5c4c2)CC(c2cc(OC)c(OC)c(OC)c2)O3)cc1 (stereo not given) | 2.36 µM | 79.5 µM | 2.63 µM | > 100 µM | 2.96 µM | > 100 µM | 2.71 µM | > 100 µM | > 100 µM | > 100 µM | 3.5 µM | 12.5 µM | 2.34 µM | 7.53 µM | 3.44 µM | 14.9 µM | 1.71 µM | 3.89 µM | – | –
2 | OCC(O)CC[CH2][Sn]([c]1ccccc1)([c]1ccccc1)[c]1ccccc1 (stereo not given) | – | – | 13.2 µM | 26.9 µM | – | – | 15.7 µM | 31.5 µM | 11.3 µM | 35.3 µM | 11.3 µM | 23.3 µM | – | – | 15.3 µM | 29 µM | 19 µM | 70.8 µM | – | –
3 | O=C1C=C(SCCO)C(=O)c2ccccc21 | – | – | 1.85 µM | 3.73 µM | 1.71 µM | 3.09 µM | 2.89 µM | 10.8 µM | 0.451 µM | 2.46 µM | 1.62 µM | 3 µM | 1.47 µM | 4.1 µM | 1.94 µM | 3.91 µM | 16.3 µM | 36.6 µM | 2.45 µM | 8.89 µM
4 | O=c1/c(=C/c2cccc3ccccc23)sc2nc3ccccc3n12 | – | – | – | > 100 µM | – | – | – | > 100 µM | – | > 100 µM | – | > 100 µM | – | – | – | > 100 µM | – | > 100 µM | – | –
5 | CCOC(C)OCC#CCCBr (stereo not given) | – | – | – | > 100 µM | – | – | – | > 100 µM | – | > 100 µM | – | > 100 µM | – | – | – | > 100 µM | – | – | – | –
6 | COc1ccc(-c2nc(-c3nc4ccc(F)cc4[nH]3)cc3c2[nH]c2ccccc23)cc1 | 2.53 µM | > 100 µM | 3.73 µM | > 100 µM | 2.99 µM | 9.65 µM | 1.78 µM | 6.69 µM | 2.83 µM | 7.23 µM | – | – | 2.56 µM | > 100 µM | 2.11 µM | 4.45 µM | 3.12 µM | > 100 µM | 1.69 µM | 5.71 µM
7 | CC(C)C1CN1CC(O)Cn1ccnc1[N+](=O)[O-] (stereo not given) | – | > 100 µM | – | > 100 µM | – | > 100 µM | – | > 100 µM | – | – | – | > 100 µM | – | > 100 µM | – | > 100 µM | – | > 100 µM | – | > 100 µM
8 | COc1ccc(C2C3=C(NC(=O)C2C#N)c2ccc4ccccc4c2OCC3)cc1 (stereo not given) | > 100 µM | > 100 µM | > 100 µM | > 100 µM | 31.4 µM | > 100 µM | 21.4 µM | 45.3 µM | 65.8 µM | > 100 µM | 27.4 µM | > 100 µM | > 100 µM | > 100 µM | > 100 µM | > 100 µM | – | – | 86.9 µM | > 100 µM
9 | CC(C)(C)c1nc2c(o1)C(=Nc1ccccc1)c1ccccc1C2=O | – | – | – | 18.4 µM | – | – | – | 26.2 µM | – | 16.6 µM | – | 10.2 µM | – | – | – | 6.99 µM | – | 23.5 µM | – | –
10 | COc1ccc(/C=C2/CN(C(=O)c3ccccc3F)C/C(=C\c3ccc(OC)cc3)C2=O)cc1 | 0.543 µM | 3.56 µM | 1.86 µM | 3.84 µM | 7.47 µM | 23.9 µM | 3.4 µM | 85.1 µM | – | – | – | – | 5.65 µM | 76.2 µM | 15.3 µM | 35.8 µM | 29.5 µM | > 100 µM | 2.57 µM | 8.87 µM
11 | O=C(/C=C/c1ccc(OCCCCCCCCCCOc2ccc(/C=C/C(=O)c3ccc(Cl)cc3)cc2)cc1)c1ccc(Cl)cc1 | – | – | – | > 100 µM | – | – | – | > 100 µM | – | > 100 µM | – | > 100 µM | – | – | – | > 100 µM | – | > 100 µM | – | –
12 | CS(=O)(=O)C1S(=O)(=O)OCCOS1(=O)=O | – | – | – | > 100 µM | – | – | – | > 100 µM | – | > 100 µM | – | > 100 µM | – | – | – | – | – | > 100 µM | – | –
13 | O=[N+]([O-])c1ccccc1S(=O)c1ccccc1 (stereo not given) | – | – | – | > 100 µM | – | – | – | > 100 µM | – | > 100 µM | – | > 100 µM | – | – | – | > 100 µM | – | > 100 µM | – | –
14 | COc1cc(OC)cc(N2CCC(c3c(N)nc(N)nc3Cl)CC2)c1 | – | – | – | > 100 µM | – | – | – | > 100 µM | – | > 100 µM | – | > 100 µM | – | – | – | > 100 µM | – | – | – | –
15 | O=C1c2ccn(CCCCN3CCOCC3)c2C(=O)c2c1c(O)c1ccccc1c2O | 6.26 µM | 24.8 µM | – | – | – | – | 5.52 µM | 20 µM | 9.07 µM | 59.9 µM | 3.58 µM | 16.2 µM | 8.45 µM | 97.7 µM | – | – | 5.32 µM | 42.5 µM | 6.96 µM | 27.3 µM
16 | O=CC1=CCCC2(C1)OCCO2 | – | – | – | > 100 µM | – | – | – | > 100 µM | – | > 100 µM | – | > 100 µM | – | – | – | > 100 µM | – | – | – | –
17 | Cc1ccc(S(=O)(=O)N(C)C)cc1[N+](=O)[O-] | > 100 µM | > 100 µM | > 100 µM | > 100 µM | > 100 µM | > 100 µM | > 100 µM | > 100 µM | – | – | > 100 µM | > 100 µM | > 100 µM | > 100 µM | – | – | > 100 µM | > 100 µM | > 100 µM | > 100 µM
18 | Cn1ncc2c(Nc3ccc(Br)cc3)nc(Nc3ccc(Br)cc3)nc21 | 2.61 µM | 10.9 µM | 2.93 µM | 8.97 µM | 3.65 µM | 13 µM | 4.15 µM | 63.5 µM | 1.44 µM | 5.85 µM | 1.82 µM | 4.03 µM | 2.7 µM | 14.6 µM | 2.89 µM | 8.56 µM | 2.62 µM | 13.4 µM | – | –
19 | COc1ccc(CC(=O)c2cc(OC)c(OC)cc2C)cc1OC | – | – | – | > 100 µM | – | – | – | > 100 µM | – | – | – | > 100 µM | – | – | – | > 100 µM | – | – | – | –
